Experimental data as given in patent US10085973B2, “Pharmaceutical composition containing a compound having a thrombopoietin receptor agonistic activity” (Shionogi & Co., Ltd., priority 2012, dated 2018).
≈ marks a conversion by molar mass, not a printed value. Like-named read-outs stand apart in the source and are kept apart here.

Experiments:
[1] = Estimated PK model parameters for chronic liver disease patients (for Monte-Carlo simulation); design: species or system human
Description: (§1) Based on the PK/PD model in healthy adults as described in (Test Example 1), model parameters in chronic liver disease patients were estimated on the basis of the following assumptions.
PK Parameters (CL, V2/F, Q2/F, V3/F, Q3/F, V4/F, Q4/F, ktr and ka):
Therefore, as PK parameters those from healthy adults were used. As parameters ka and ktr, estimated values under the conditions of postprandial and tablets were used in line with clinical usage.

platelet count [2] = assay: PD model from phase 1 trial in healthy male adults (profile of platelet count); assay type: in vivo, human; details: for EC50: Homo sapiens, Platelet, read-out: EC50 (sigmoid Emax model), mean
Description: Using the plasma concentration of the drug and the platelet count data of 54 cases obtained in phase 1 trial carried out in Japan to healthy male adults, a PK/PD model was constructed that can describe pharmacokinetics and a profile of a platelet count. The PK model describing pharmacokinetics was a three-compartment model including three compartments in the absorption process in order to explain the delay in absorption. The PD model describing the relation between the plasma concentration and the profile of platelets counts was a model including five compartments in order to explain the maturation process of platelets. […] We assumed that the distributions of respective model parameters and the distributions of the residual errors of the models follow a log-normal distribution. Parameters were estimated by using the first order conditional estimation method with interaction in a software NONMEM (version VI, level 2.0).

platelet count [3] = assay: Estimated PD model parameters for chronic liver disease patients (for Monte-Carlo simulation); design: species or system human
Description: as §1
Based on the pre-defined level of platelet count expected in chronic liver disease patients, the average and range of PLT0 were set to 3×10^4/μL and 2×10^4 to 4.9×10^4/μL, respectively.
It was reported that platelets destruction in chronic liver disease patients was promoted (see Reference 1) and the survival period of platelets was about ⅔ of that of healthy adults (see References 2 and 3). Therefore, kdeg, a parameter representing the elimination rate of platelets, was set to the value which was about 1.5 times of the value of healthy adults, i.e. 0.009 hr^−1. In addition, based on the relationship that the production rate of platelets is equal to the elimination rate of platelets at baseline, kpr, a parameter representing the production rate of platelets, was calculated from the formula: PLT0×kdeg. As a result, kpr was 0.027×10^4/μL/hr which was lower than the value in healthy adults (0.116×10^4/μL/hr). This estimated value matched the previous report that the production rate of platelets was decreased in chronic liver disease patients (see Reference 1).
It was assumed that a parameter km representing the maturation rate of platelets in chronic liver disease patients is similar to that in healthy adults. Therefore, the estimated value in healthy adults was used as km.
When the plasma concentration is sufficiently lower than EC50 (EC50>>C), the drug efficacy of lusutrombopag can be approximated by Emax/EC50. It was assumed based on the clinical data of eltrombopag, a drug having the same efficacy (see References 4 and 5) that Emax/EC50 in this trial was about 3 times of the value of healthy adults. […] Meanwhile, it was assumed that r in the patients was similar to that in healthy adults. Therefore, the value in healthy adults was used as r.
A reduction in the production rate of platelets with an increase in platelets, i.e. the negative feedback phenomenon, is represented by the formula (PLT0/PLT)^γ. […] Therefore, the negative feedback phenomenon was not taken into account in the present simulation.
As inter-individual variability of the respective PD parameters, the values in healthy adults were used.
The intra-individual variability of plasma concentration was not taken into account in the present simulation. As the intra-individual variability of a platelet count, the value in healthy adults was used.

CCCCCCO[C@@H](C)c1cccc(-c2csc(NC(=O)c3cc(Cl)c(/C=C(\C)C(=O)O)c(Cl)c3)n2)c1OC [lusutrombopag, (E)-3-[2,6-dichloro-4-[4-[3-[(S)-1-hexyloxyethyl]-2-methoxyphenyl]-thiazol-2-ylcarbamoyl]-phenyl]-2-methylacrylic acid]
Q3/F, mean [1]: 0.946 L/h
Q4/F, mean [1]: 0.0262 L/h
V3/F, mean [1]: 6.28 L
V4/F, mean [1]: 2.71 L
ka, mean ([1]; postprandial and tablets): 0.854 h⁻¹
ktr, mean ([1]; postprandial and tablets): 1.38 h⁻¹
CL, mean ([1]; value of healthy adults used): 0.776 L/h
V2/F, mean ([1]; × (1 + (BW − 63) × 0.0172)): 15.9 L
Emax (sigmoid Emax model), mean (platelet count [2]): 3.52
kdeg (elimination rate constant from the platelet compartment), mean (platelet count [2]): 1.61e-06 s⁻¹
km (inter-PD-compartmental transfer rate constant), mean (platelet count [2]): 0.0394 h⁻¹
r (sigmoid Emax model), mean (platelet count [2]): 2.03
EC50 (platelet count [2]; 50 mg/dose): 0.0216 µg/mL (≈ 0.0365 µM)
EC50 (platelet count [2]; <50 mg/dose): 0.0647 µg/mL (≈ 0.109 µM)
kdeg, mean (platelet count [3]; about 1.5 times of healthy adults): 2.5e-06 s⁻¹
EC50, mean (platelet count [3]; set by assumption): 0.18 µg/mL (≈ 0.304 µM)
Emax, mean (platelet count [3]; set by assumption): 29.3
km, mean (platelet count [3]; value of healthy adults): 0.0394 h⁻¹
r, mean (platelet count [3]; value of healthy adults): 2.03
